How the values were obtained:
[1] = ref Matthews, 2006, Yan et al.; cited from earlier work
[2] = tested on: MDCK II cells transiently transfected with hCNT2; assay: MTS cell viability assay in hCNT2 transfected MDCK II cells; type: cell-based, canine; details: 24 h, 250–1000 μM, hCNT2 vs empty vector MDCK II cells
Procedure: The controls were prepared simultaneously.

[3] = target: T1, hOAT1 (Homo sapiens, UniProt Q4U2R8); set-up: host or cells: HeLa cells, transient transfection; method as in Xu et al., 2013; details: ref Xu et al., 2013; read-out: Km for hOAT1, previously published; cited from earlier work
T1 sequence (Q4U2R8 1-563): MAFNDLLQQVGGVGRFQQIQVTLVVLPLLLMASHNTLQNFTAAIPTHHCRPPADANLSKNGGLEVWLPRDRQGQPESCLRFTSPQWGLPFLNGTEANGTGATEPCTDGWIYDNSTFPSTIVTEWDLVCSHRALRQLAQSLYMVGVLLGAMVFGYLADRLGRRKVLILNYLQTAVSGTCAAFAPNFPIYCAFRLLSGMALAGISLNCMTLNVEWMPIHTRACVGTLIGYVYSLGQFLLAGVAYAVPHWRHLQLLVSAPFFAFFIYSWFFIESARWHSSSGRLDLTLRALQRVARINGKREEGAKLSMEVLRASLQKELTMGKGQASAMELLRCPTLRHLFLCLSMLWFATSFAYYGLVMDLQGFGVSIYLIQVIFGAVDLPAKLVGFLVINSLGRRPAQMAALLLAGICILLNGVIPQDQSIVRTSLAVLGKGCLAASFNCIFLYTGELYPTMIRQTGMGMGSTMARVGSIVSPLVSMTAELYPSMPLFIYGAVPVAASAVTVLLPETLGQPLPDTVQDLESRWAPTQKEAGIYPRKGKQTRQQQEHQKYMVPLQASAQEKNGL

C=C1[C@H](CO)[C@@H](O)C[C@@H]1n1cnc2c(=O)[nH]c(N)nc21 [ETV, Entecavir]
Therapeutic concentrations in plasma following regular doses [1]: below 50 nM | Effect of hCNT2 expression on cytotoxicity [2]: did not prove any significant increase in cytotoxicity | Km [3]: 250 µM

From article PMC4700268 (Frontiers in Pharmacology, 2016)
